According to publication PMC6591251, “Discovery of potent necroptosis inhibitors targeting RIPK1 kinase activity for the treatment of inflammatory disorder and cancer metastasis” (Cell Death & Disease, 2019):

Legend:
Assay in all cases: RBC kinase panel
Assay type in all cases: biochemical
TSSK3/STK22C = molecular target: T1, TSSK3/STK22C (Homo sapiens, UniProt Q96PN8); conditions: ATP 10 μM, Data1, Data2
T1 construct: purchased Reaction Biology Corporation
How it was run: (§1)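 Profiling covered 369 human kinases, each assayed in duplicate with the compound present at 1 μM and ATP at 10 μM.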

LIMK2 = molecular target: T2, LIMK2 (Homo sapiens, UniProt P53671)
T2 construct: purchased Reaction Biology Corporation
T2 sequence (P53671 whole entry): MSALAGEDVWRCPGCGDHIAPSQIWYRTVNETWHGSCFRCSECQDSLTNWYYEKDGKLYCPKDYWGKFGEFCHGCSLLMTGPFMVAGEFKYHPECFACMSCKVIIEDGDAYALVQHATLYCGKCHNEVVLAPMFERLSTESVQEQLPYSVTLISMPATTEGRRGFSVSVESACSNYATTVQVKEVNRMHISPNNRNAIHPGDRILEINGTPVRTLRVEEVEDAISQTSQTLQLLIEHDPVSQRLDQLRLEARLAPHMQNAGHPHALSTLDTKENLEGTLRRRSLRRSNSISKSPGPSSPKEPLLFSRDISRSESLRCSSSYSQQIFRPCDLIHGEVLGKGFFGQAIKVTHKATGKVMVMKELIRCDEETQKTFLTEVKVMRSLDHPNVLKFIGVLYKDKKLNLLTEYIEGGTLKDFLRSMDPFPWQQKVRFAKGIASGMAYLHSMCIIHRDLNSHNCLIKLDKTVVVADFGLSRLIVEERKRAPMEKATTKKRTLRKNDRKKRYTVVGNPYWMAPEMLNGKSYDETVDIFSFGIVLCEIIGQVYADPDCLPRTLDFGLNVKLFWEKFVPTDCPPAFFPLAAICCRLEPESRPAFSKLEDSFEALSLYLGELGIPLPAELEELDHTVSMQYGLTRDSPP
How it was run: as §1

GRK5 = molecular target: T3, GRK5 (Homo sapiens, UniProt P34947); conditions: ATP 10 μM, Data1, Data2
T3 construct: purchased Reaction Biology Corporation
T3 sequence (P34947 whole entry): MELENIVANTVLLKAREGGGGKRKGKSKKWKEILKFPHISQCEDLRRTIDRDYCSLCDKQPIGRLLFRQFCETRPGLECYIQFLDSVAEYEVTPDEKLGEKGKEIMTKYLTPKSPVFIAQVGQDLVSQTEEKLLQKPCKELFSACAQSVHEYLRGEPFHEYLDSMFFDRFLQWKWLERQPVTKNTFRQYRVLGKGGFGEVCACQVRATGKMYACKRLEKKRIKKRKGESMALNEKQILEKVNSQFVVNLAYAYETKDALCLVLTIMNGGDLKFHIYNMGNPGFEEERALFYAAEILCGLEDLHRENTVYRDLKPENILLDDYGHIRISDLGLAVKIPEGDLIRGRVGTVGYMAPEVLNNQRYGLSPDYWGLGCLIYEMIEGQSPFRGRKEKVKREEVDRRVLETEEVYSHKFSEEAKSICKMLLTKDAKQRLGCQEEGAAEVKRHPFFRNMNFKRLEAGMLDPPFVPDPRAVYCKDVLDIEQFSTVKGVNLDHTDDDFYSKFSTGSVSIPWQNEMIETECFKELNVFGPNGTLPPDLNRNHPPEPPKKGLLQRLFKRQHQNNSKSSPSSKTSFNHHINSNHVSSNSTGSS
How it was run: as §1

PKG1a = molecular target: T4, PKG1a (Homo sapiens, UniProt Q13976); conditions: ATP 10 μM, Data1, Data2
T4 construct: purchased Reaction Biology Corporation
How it was run: as §1

IKKb/IKBKB = molecular target: T5, IKKb/IKBKB (Homo sapiens, UniProt O14920); conditions: ATP 10 μM, Data1, Data2
T5 construct: purchased Reaction Biology Corporation
How it was run: as §1

CHK1 = molecular target: T6, CHK1 (Homo sapiens, UniProt O14757); conditions: ATP 10 μM, Data1, Data2
T6 construct: purchased Reaction Biology Corporation
How it was run: as §1

MARK1 = molecular target: T7, MARK1 (Homo sapiens, UniProt Q9P0L2); conditions: ATP 10 μM, Data1, Data2
T7 construct: purchased Reaction Biology Corporation
How it was run: as §1

ITK = molecular target: T8, ITK (Homo sapiens, UniProt Q08881); conditions: ATP 10 μM, Data1, Data2
T8 construct: purchased Reaction Biology Corporation
How it was run: as §1

CAMK2a = molecular target: T9, CAMK2a (Homo sapiens, UniProt Q9UQM7); conditions: ATP 10 μM, Data1, Data2
T9 construct: purchased Reaction Biology Corporation
How it was run: as §1

VRK1 = molecular target: T10, VRK1 (Homo sapiens, UniProt Q99986); conditions: ATP 10 μM, Data1, Data2
T10 construct: purchased Reaction Biology Corporation
T10 sequence (Q99986 whole entry): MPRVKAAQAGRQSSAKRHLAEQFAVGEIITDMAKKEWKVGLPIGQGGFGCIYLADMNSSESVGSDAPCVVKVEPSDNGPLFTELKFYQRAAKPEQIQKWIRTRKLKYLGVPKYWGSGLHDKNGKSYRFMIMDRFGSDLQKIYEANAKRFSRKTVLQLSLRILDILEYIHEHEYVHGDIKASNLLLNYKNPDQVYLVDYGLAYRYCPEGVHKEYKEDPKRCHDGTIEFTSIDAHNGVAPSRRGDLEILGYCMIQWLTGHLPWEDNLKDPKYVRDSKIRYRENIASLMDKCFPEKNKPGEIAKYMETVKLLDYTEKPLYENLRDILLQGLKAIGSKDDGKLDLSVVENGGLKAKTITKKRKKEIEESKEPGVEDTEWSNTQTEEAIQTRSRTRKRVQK
How it was run: as §1

PAK1 = molecular target: T11, PAK1 (Homo sapiens, UniProt Q13153); conditions: ATP 10 μM, Data1, Data2
T11 construct: purchased Reaction Biology Corporation
How it was run: as §1

PKCeta = molecular target: T12, PKCeta (Homo sapiens, UniProt P24723); conditions: ATP 10 μM, Data1, Data2
T12 construct: purchased Reaction Biology Corporation
How it was run: as §1

IKKa/CHUK = molecular target: T13, IKKa/CHUK (Homo sapiens, UniProt O15111); conditions: ATP 10 μM, Data1, Data2
T13 construct: purchased Reaction Biology Corporation
How it was run: as §1

MEKK2 = molecular target: T14, MEKK2 (Homo sapiens, UniProt Q9Y2U5); conditions: ATP 10 μM, Data1, Data2
T14 construct: purchased Reaction Biology Corporation
How it was run: as §1

NEK3 = molecular target: T15, NEK3 (Homo sapiens, UniProt P51956); conditions: ATP 10 μM, Data1, Data2
T15 construct: purchased Reaction Biology Corporation
How it was run: as §1

CDK1/cyclin B = molecular target: T16, CDK1/cyclin B (Homo sapiens, UniProt P06493); conditions: ATP 10 μM, Data1, Data2
T16 construct: purchased Reaction Biology Corporation
How it was run: as §1

EPHA1 = molecular target: T17, EPHA1 (Homo sapiens, UniProt P21709); conditions: ATP 10 μM, Data1, Data2
T17 construct: purchased Reaction Biology Corporation
How it was run: as §1

PLK2 = molecular target: T18, PLK2 (Homo sapiens, UniProt Q9NYY3); conditions: ATP 10 μM, Data1, Data2
T18 construct: purchased Reaction Biology Corporation
How it was run: as §1

MLK4 = molecular target: T19, MLK4 (Homo sapiens, UniProt Q5TCX8); conditions: ATP 10 μM, Data1, Data2
T19 construct: purchased Reaction Biology Corporation
How it was run: as §1

HIPK1 = molecular target: T20, HIPK1 (Homo sapiens, UniProt Q86Z02); conditions: ATP 10 μM, Data1, Data2
T20 construct: purchased Reaction Biology Corporation
How it was run: as §1

CDC7/DBF4 = molecular target: T21, CDC7/DBF4 (Homo sapiens, UniProt O00311); conditions: ATP 10 μM, Data1, Data2
T21 construct: purchased Reaction Biology Corporation
T21 sequence (O00311 whole entry): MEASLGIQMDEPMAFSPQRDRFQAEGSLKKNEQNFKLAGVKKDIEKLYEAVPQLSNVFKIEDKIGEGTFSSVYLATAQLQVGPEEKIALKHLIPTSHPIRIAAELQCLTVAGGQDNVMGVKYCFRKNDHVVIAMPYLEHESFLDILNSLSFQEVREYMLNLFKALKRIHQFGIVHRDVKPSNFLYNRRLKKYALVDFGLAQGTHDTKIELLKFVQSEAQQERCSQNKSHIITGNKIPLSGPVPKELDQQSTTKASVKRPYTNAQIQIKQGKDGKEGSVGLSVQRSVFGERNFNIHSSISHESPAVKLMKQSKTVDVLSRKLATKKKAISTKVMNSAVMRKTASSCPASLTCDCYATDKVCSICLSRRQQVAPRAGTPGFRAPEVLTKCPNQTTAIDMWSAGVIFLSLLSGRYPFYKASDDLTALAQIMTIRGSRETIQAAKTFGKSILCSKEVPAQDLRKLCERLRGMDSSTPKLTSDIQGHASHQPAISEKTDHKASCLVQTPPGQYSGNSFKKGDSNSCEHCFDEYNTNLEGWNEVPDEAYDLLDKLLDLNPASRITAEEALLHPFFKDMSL
T21 sequence (Q9UBU7 whole entry partner): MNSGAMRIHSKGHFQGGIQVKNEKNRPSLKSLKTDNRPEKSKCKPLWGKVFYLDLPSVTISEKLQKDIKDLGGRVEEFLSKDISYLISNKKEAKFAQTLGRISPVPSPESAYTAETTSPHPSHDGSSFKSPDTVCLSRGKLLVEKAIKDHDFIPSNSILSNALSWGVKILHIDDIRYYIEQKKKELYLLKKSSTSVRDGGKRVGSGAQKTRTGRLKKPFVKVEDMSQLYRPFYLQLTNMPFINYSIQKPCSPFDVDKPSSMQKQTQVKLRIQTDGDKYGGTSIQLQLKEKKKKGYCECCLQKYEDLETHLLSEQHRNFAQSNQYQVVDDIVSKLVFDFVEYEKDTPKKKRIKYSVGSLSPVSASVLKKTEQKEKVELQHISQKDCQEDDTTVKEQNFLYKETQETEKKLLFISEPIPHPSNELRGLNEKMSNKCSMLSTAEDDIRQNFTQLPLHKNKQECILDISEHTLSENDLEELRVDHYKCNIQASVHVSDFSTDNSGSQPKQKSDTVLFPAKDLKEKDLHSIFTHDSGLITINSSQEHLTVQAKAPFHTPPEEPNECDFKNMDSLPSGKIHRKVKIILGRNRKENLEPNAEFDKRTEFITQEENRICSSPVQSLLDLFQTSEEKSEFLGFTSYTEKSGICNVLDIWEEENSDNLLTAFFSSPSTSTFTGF
How it was run: as §1

STK32C/YANK3 = molecular target: T22, STK32C/YANK3 (Homo sapiens, UniProt Q86UX6); conditions: ATP 10 μM, Data1, Data2
T22 construct: purchased Reaction Biology Corporation
How it was run: as §1

BRSK1 = molecular target: T23, BRSK1 (Homo sapiens, UniProt Q8TDC3); conditions: ATP 10 μM, Data1, Data2
T23 construct: purchased Reaction Biology Corporation
How it was run: as §1

PBK/TOPK = molecular target: T24, PBK/TOPK (Homo sapiens, UniProt Q96KB5); conditions: ATP 10 μM, Data1, Data2
T24 construct: purchased Reaction Biology Corporation
How it was run: as §1

CDK17/cyclin Y (PCTK2) = molecular target: T25, CDK17/cyclin Y (PCTK2) (Homo sapiens, UniProt Q00537); conditions: ATP 10 μM, Data1, Data2
T25 construct: purchased Reaction Biology Corporation
T25 sequence (Q00537 whole entry): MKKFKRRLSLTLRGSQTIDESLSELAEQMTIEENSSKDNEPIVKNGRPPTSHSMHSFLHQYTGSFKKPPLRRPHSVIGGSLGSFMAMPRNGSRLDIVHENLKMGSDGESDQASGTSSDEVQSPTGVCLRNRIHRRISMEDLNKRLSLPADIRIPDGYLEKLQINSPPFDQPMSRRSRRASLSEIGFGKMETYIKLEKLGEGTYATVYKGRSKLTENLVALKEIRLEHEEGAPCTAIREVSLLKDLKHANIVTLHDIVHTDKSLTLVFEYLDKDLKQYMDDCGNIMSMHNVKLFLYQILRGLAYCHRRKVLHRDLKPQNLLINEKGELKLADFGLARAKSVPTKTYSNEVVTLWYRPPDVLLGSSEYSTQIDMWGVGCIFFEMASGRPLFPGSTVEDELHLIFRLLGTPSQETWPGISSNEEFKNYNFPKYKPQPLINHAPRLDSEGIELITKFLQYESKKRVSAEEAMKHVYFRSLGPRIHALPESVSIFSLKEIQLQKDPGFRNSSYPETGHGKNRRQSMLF
T25 sequence (Q8ND76 whole entry partner): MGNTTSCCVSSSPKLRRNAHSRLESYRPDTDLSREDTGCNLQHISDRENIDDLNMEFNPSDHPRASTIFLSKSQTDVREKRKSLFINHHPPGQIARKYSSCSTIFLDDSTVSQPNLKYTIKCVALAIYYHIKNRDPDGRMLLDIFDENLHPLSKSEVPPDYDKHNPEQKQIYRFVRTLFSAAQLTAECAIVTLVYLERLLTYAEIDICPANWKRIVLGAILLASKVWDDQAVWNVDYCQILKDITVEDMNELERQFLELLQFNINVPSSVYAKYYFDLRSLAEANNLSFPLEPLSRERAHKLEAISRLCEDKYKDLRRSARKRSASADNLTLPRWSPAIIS
How it was run: as §1

NIM1 = molecular target: T26, NIM1 (Homo sapiens, UniProt Q8IY84); conditions: ATP 10 μM, Data1, Data2
T26 construct: purchased Reaction Biology Corporation
How it was run: as §1

CLK3 = molecular target: T27, CLK3 (Homo sapiens, UniProt P49761); conditions: ATP 10 μM, Data1, Data2
T27 construct: purchased Reaction Biology Corporation
How it was run: as §1

PKN3/PRK3 = molecular target: T28, PKN3/PRK3 (Homo sapiens, UniProt Q6P5Z2); conditions: ATP 10 μM, Data1, Data2
T28 construct: purchased Reaction Biology Corporation
T28 sequence (Q6P5Z2 whole entry): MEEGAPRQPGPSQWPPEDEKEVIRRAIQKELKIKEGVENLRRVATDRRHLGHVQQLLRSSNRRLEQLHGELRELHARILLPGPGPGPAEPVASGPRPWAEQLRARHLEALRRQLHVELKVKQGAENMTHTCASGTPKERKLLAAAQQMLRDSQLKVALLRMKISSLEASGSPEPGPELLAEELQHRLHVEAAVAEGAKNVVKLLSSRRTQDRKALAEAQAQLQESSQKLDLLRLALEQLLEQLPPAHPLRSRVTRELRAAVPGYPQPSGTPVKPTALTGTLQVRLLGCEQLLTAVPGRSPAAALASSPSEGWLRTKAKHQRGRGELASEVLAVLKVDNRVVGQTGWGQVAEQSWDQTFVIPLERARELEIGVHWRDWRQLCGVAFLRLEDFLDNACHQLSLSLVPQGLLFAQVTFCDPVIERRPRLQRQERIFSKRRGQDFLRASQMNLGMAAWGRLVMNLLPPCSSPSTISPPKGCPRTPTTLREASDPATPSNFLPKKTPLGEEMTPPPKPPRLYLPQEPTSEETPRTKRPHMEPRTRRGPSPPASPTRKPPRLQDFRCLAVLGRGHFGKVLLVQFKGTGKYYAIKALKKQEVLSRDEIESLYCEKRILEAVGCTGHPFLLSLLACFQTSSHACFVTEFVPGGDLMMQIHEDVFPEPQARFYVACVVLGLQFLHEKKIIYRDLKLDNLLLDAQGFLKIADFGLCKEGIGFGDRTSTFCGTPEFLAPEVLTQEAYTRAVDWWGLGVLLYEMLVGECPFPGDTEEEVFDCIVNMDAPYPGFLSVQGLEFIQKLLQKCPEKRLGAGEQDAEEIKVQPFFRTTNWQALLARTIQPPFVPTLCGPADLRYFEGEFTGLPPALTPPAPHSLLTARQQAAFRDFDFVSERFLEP
How it was run: as §1

TEC = molecular target: T29, TEC (Homo sapiens, UniProt P42680); conditions: ATP 10 μM, Data1, Data2
T29 construct: purchased Reaction Biology Corporation
How it was run: as §1

MEKK6 = molecular target: T30, MEKK6 (Homo sapiens, UniProt O95382); conditions: ATP 10 μM, Data1, Data2
T30 construct: purchased Reaction Biology Corporation
How it was run: as §1

CDK3/cyclin E = molecular target: T31, CDK3/cyclin E (Homo sapiens, UniProt Q00526); conditions: ATP 10 μM, Data1, Data2
T31 construct: purchased Reaction Biology Corporation
How it was run: as §1

ERBB2/HER2 = molecular target: T32, ERBB2/HER2 (Homo sapiens, UniProt P04626); conditions: ATP 10 μM, Data1, Data2
T32 construct: purchased Reaction Biology Corporation
How it was run: as §1

PAK5 = molecular target: T33, PAK5 (Homo sapiens, UniProt Q9P286); conditions: ATP 10 μM, Data1, Data2
T33 construct: purchased Reaction Biology Corporation
How it was run: as §1

T1 sequence (Q96PN8 whole entry): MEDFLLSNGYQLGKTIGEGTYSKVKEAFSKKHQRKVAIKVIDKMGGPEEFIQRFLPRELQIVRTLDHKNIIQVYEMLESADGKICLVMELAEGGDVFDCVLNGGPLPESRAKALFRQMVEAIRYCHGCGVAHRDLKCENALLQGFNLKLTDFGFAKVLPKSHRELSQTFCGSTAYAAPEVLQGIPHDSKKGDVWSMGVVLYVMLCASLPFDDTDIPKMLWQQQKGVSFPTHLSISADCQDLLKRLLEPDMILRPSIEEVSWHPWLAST

For `CC(=O)Nc1nc2ccc(-c3cnc(C)c(NC(=O)OC4CCCCC4)c3)cc2s1` [PK68, cyclohexyl (5-(2-acetamidobenzo[d]thiazol-6-yl)-2-methylpyridin-3-yl)carbamate], the Activity% (TSSK3/STK22C; 1 μM) was 103.77%, the activity at 1 µM (TSSK3/STK22C) was 104% and the Activity% (LIMK2; 1 μM, ATP 10 μM, Data1, Data2) was 42.64%. It also gave an activity at 1 µM (LIMK2; 1 μM, ATP 10 μM, Data1, Data2) of 44%, an inhibition at 1 µM (LIMK2; at 1000 nM) of over 50% and an Activity% (GRK5; 1 μM) of 103.56%. It also gave an activity at 1 µM (GRK5) of 104%, an Activity% (PKG1a; 1 μM) of 90.22% and an activity at 1 µM (PKG1a) of 90.3%. The Activity% (IKKb/IKBKB; 1 μM) was 107.97%, the activity at 1 µM (IKKb/IKBKB) was 109% and the Activity% (CHK1; 1 μM) was 87.21%. The activity at 1 µM (CHK1) was 87.3%, the Activity% (MARK1; 1 μM) was 96.33% and the activity at 1 µM (MARK1) was 97%. For the same compound, the Activity% (ITK; 1 μM) was 88.47%, the activity at 1 µM (ITK) was 88.6% and the Activity% (CAMK2a; 1 μM) was 99.17%. For the same compound, the activity at 1 µM (CAMK2a) was 100%, the Activity% (VRK1; 1 μM) was 104.78% and the activity at 1 µM (VRK1) was 105%. For the same compound, the Activity% (PAK1; 1 μM) was 101.03%, the activity at 1 µM (PAK1) was 102% and the Activity% (PKCeta; 1 μM) was 90.40%. For the same compound, the activity at 1 µM (PKCeta) was 92.8%, the Activity% (IKKa/CHUK; 1 μM) was 107.86% and the activity at 1 µM (IKKa/CHUK) was 117%. For the same compound, the Activity% (MEKK2; 1 μM) was 85.76%, the activity at 1 µM (MEKK2) was 89.8% and the Activity% (NEK3; 1 μM) was 116.50%. It also gave an activity at 1 µM (NEK3) of 119%, an Activity% (CDK1/cyclin B; 1 μM) of 97.32% and an activity at 1 µM (CDK1/cyclin B) of 97.6%. The Activity% (EPHA1; 1 μM) was 100.48%, the activity at 1 µM (EPHA1) was 101% and the Activity% (PLK2; 1 μM) was 102.02%. The activity at 1 µM (PLK2) was 102%, the Activity% (MLK4; 1 μM) was 104.45% and the activity at 1 µM (MLK4) was 107%. It also gave an Activity% (HIPK1; 1 μM) of 86.01%, an activity at 1 µM (HIPK1) of 87.4% and an Activity% (CDC7/DBF4; 1 μM) of 104.41%. For the same compound, the activity at 1 µM (CDC7/DBF4) was 110%, the Activity% (STK32C/YANK3; 1 μM) was 100.29% and the activity at 1 µM (STK32C/YANK3) was 101%. For the same compound, the Activity% (BRSK1; 1 μM) was 101.25%, the activity at 1 µM (BRSK1) was 102% and the Activity% (PBK/TOPK; 1 μM) was 97.84%. It also gave an activity at 1 µM (PBK/TOPK) of 98.4%, an Activity% (CDK17/cyclin Y (PCTK2); 1 μM) of 77.31% and an activity at 1 µM (CDK17/cyclin Y (PCTK2)) of 79%. For the same compound, the Activity% (NIM1; 1 μM) was 96.79%, the activity at 1 µM (NIM1) was 97.5% and the Activity% (CLK3; 1 μM) was 99.85%. It also gave an activity at 1 µM (CLK3) of 101%, an Activity% (PKN3/PRK3; 1 μM) of 92.58% and an activity at 1 µM (PKN3/PRK3) of 94.1%. For the same compound, the Activity% (TEC; 1 μM) was 97.93%, the activity at 1 µM (TEC) was 99% and the Activity% (MEKK6; 1 μM) was 88.83%. The activity at 1 µM (MEKK6) was 91.3%, the Activity% (CDK3/cyclin E; 1 μM) was 91.48% and the activity at 1 µM (CDK3/cyclin E) was 91.7%. For the same compound, the Activity% (ERBB2/HER2; 1 μM) was 97.32%, the activity at 1 µM (ERBB2/HER2) was 99.1% and the Activity% (PAK5; 1 μM) was 98.16%. It also gave an activity at 1 µM (PAK5) of 102%.
